In patent US20250197409A1, “BIFUNCTIONAL COMPOUND AND PHARMACEUTICAL COMPOSITION COMPRISING THE BIFUNCTIONAL COMPOUND, AND METHOD FOR TREATING ANDROGEN RECEPTOR RELATED DISEASE BY USING THE SAME” (ANHORN MEDICINES CO., LTD., priority 2022, published 2025):

target: T1, androgen receptor (Homo sapiens, UniProt P10275, T878A); experiment: Androgen receptor degradation assay using Western blot analysis; format: cell-based; details: LNCaP.FGC cells, serial 10x dilutions from 100 nM; read-out: AR DC50 (concentration needed for 50% AR degradation)
T1 construct: host or cells: LNCaP.FGC
Method in brief: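 LNCaP.FGC cells (2×10^5/well) treated with 10-fold serial dilutions in RPMI from 100 nM stock; untreated cells as negative control. AR Western signal normalized to GAPDH, expressed as % remaining versus untreated (100%). DC50 derived from calibration curve of serial dilutions.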

T1 sequence (P10275 whole entry T878A): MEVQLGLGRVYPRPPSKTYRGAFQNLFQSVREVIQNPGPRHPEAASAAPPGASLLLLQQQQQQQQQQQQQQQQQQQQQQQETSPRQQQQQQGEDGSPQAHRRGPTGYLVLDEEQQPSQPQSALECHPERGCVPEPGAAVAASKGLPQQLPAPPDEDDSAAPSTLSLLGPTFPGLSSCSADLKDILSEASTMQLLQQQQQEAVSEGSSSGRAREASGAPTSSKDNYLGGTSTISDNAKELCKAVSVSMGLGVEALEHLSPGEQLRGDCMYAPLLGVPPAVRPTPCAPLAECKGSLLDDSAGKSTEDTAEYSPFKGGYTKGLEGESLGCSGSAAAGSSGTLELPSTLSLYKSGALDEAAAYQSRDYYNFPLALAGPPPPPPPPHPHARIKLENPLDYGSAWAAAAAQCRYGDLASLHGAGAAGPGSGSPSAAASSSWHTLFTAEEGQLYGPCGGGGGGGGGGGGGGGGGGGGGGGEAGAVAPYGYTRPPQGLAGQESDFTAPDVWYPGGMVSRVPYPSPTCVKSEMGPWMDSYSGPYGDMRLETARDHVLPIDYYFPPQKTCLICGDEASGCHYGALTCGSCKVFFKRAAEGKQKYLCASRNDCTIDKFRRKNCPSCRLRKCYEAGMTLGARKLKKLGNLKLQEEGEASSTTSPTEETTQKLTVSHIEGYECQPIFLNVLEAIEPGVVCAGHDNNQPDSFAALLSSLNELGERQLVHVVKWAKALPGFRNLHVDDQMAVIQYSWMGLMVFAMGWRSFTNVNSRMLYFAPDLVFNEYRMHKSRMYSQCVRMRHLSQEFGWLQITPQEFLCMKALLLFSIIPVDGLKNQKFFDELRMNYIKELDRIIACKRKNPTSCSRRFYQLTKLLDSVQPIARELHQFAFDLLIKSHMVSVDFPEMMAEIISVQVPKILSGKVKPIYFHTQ
T1 sequence (Q96SW2 whole entry partner): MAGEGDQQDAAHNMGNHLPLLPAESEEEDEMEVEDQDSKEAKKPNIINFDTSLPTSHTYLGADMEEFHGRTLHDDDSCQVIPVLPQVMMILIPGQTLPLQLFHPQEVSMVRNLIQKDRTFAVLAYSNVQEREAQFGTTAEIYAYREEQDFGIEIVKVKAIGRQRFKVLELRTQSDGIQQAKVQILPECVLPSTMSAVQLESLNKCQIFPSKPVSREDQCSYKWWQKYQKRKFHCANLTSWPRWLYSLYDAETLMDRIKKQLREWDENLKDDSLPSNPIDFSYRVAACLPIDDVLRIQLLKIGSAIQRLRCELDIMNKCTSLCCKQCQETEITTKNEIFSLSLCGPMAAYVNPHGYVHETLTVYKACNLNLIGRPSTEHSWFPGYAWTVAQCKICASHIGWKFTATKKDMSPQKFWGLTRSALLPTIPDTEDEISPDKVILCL

`Cn1c2c(c3ccc(OCCOC4CC5(CCN(c6ccc(C(=O)N[C@H]7CC[C@H](Oc8ccc(C#N)c(Cl)c8)CC7)nn6)C5)C4)cc31)C(=O)N(C1CCC(=O)NC1=O)C2=O` (stereo partly drawn) [Compound 174] and `Cn1c2c(c3ccc(OCCCOC4CC5(CCN(c6ccc(C(=O)N[C@H]7CC[C@H](Oc8ccc(C#N)c(Cl)c8)CC7)nn6)C5)C4)cc31)C(=O)N(C1CCC(=O)NC1=O)C2=O` (stereo partly drawn) [Compound 179] fall in the same range of DC50: 25 to 100 nM for the first, 25 to 100 nM for the second.

`Cn1c2c(c3ccc(OCCCCOC4CCN(c5ccc(C(=O)N[C@H]6CC[C@H](Oc7ccc(C#N)c(Cl)c7)CC6)nn5)CC4)cc31)C(=O)N(C1CCC(=O)NC1=O)C2=O` (stereo partly drawn) [Compound 187] and `CC(COc1ccc2c3c(n(C)c2c1)C(=O)N(C1CCC(=O)NC1=O)C3=O)CN1CCN(c2ccc(C(=O)N[C@H]3CC[C@H](Oc4ccc(C#N)c(Cl)c4)CC3)nn2)CC1` (stereo partly drawn) [Compound 188] fall in the same range of DC50: 25 to 100 nM for the first, 25 to 100 nM for the second.

same assay, conditions: read-out: AR DC50 (concentration needed for 50% AR degradation); LNCaP.FGC cells, serial 10x dilutions from 100 nM

`Cn1c2c(c3ccc(OCCOC4CC5(CCN(c6ccc(C(=O)N[C@H]7CC[C@H](N(C)c8ccc(C#N)c(Cl)c8)CC7)nn6)C5)C4)cc31)C(=O)N(C1CCC(=O)NC1=O)C2=O` (stereo partly drawn) [Compound 175] and `Cn1c2c(c3ccc(OCCCOC4CC5(CCN(c6ccc(C(=O)N[C@H]7CC[C@H](N(C)c8ccc(C#N)c(Cl)c8)CC7)nn6)C5)C4)cc31)C(=O)N(C1CCC(=O)NC1=O)C2=O` (stereo partly drawn) [Compound 178] fall in the same range of DC50: 10 to 25 nM for the first, 10 to 25 nM for the second.

`CCn1c2c(c3ccc(OCCCOC4CC5(CCN(c6ccc(C(=O)N[C@H]7CC[C@H](Oc8ccc(C#N)c(Cl)c8)CC7)nn6)C5)C4)cc31)C(=O)N(C1CCC(=O)NC1=O)C2=O` (stereo partly drawn) [Compound 176] and `CCn1c2c(c3ccc(OCCCOC4CC5(CCN(c6ccc(C(=O)N[C@H]7CC[C@H](N(C)c8ccc(C#N)c(Cl)c8)CC7)nn6)C5)C4)cc31)C(=O)N(C1CCC(=O)NC1=O)C2=O` (stereo partly drawn) [Compound 177] fall in the same range of DC50: 25 to 100 nM for the first, 25 to 100 nM for the second.

`CCn1c2c(c3ccc(OCCN4CCC5(CC4)CCN(c4ccc(C(=O)N[C@H]6CC[C@H](N(C)c7ccc(C#N)c(Cl)c7)CC6)nn4)CC5)cc31)C(=O)N(C1CCC(=O)NC1=O)C2=O` (stereo partly drawn) [Compound 180] and `CCn1c2c(c3ccc(OCCCN4CCC5(CC4)CCN(c4ccc(C(=O)N[C@H]6CC[C@H](N(C)c7ccc(C#N)c(Cl)c7)CC6)nn4)CC5)cc31)C(=O)N(C1CCC(=O)NC1=O)C2=O` (stereo partly drawn) [Compound 181] cannot be ordered by DC50: < 10 nM for the first, < 10 nM for the second.

Compared with `CCn1c2c(c3ccc(OCCN4CCC5(CC4)CCN(c4ccc(C(=O)N[C@H]6CC[C@H](Oc7ccc(C#N)c(Cl)c7)CC6)nn4)CC5)cc31)C(=O)N(C1CCC(=O)NC1=O)C2=O` (stereo partly drawn) [Compound 182], `CCn1c2c(c3ccc(OCCCN4CCC5(CC4)CCN(c4ccc(C(=O)N[C@H]6CC[C@H](Oc7ccc(C#N)c(Cl)c7)CC6)nn4)CC5)cc31)C(=O)N(C1CCC(=O)NC1=O)C2=O` (stereo partly drawn) [Compound 183] is higher in DC50: < 10 nM for the first, 10 to 25 nM for the second.

Compared with `CCn1c2c(c3ccc(OCCCCOC4CCN(c5ccc(C(=O)N[C@H]6CC[C@H](Oc7ccc(C#N)c(Cl)c7)CC6)nn5)CC4)cc31)C(=O)N(C1CCC(=O)NC1=O)C2=O` (stereo partly drawn) [Compound 185], `Cn1c2c(c3ccc(OCCCCOC4CCN(c5ccc(C(=O)N[C@H]6CC[C@H](N(C)c7ccc(C#N)c(Cl)c7)CC6)nn5)CC4)cc31)C(=O)N(C1CCC(=O)NC1=O)C2=O` (stereo partly drawn) [Compound 186] is lower in DC50: 25 to 100 nM for the first, 10 to 25 nM for the second.

First: CC(COc1ccc2c3c(n(C)c2c1)C(=O)N(C1CCC(=O)NC1=O)C3=O)CN1CCN(c2ccc(C(=O)N[C@H]3CC[C@H](N(C)c4ccc(C#N)c(Cl)c4)CC3)nn2)CC1 (stereo partly drawn) [Compound 189]
Second: CCn1c2c(c3ccc(OCC(C)CN4CCN(c5ccc(C(=O)N[C@H]6CC[C@H](Oc7ccc(C#N)c(Cl)c7)CC6)nn5)CC4)cc31)C(=O)N(C1CCC(=O)NC1=O)C2=O (stereo partly drawn) [Compound 192]
The DC50 of the first is lower: 10 to 25 nM for the first, 25 to 100 nM for the second.

First: CCn1c2c(c3ccc(OCCCN4CC=C(c5ccc(C(=O)N[C@H]6CC[C@H](Oc7ccc(C#N)c(Cl)c7)CC6)nn5)CC4)cc31)C(=O)N(C1CCC(=O)NC1=O)C2=O (stereo partly drawn) [Compound 190]
Second: CCn1c2c(c3ccc(OCCN4CC=C(c5ccc(C(=O)N[C@H]6CC[C@H](Oc7ccc(C#N)c(Cl)c7)CC6)nn5)CC4)cc31)C(=O)N(C1CCC(=O)NC1=O)C2=O (stereo partly drawn) [Compound 191]
The DC50 of the first is higher: 10 to 25 nM for the first, < 10 nM for the second.
